Measurements: US20090326072A1, “USE OF 2-(2-NITRO-4-TRIFLUOROMETHYLBENZOYL)-l,3- CYCLOHEXANEDIONE IN THE TREATMENT OF PARKINSON'S DISEASE” (priority 2005, published 2009)
Entries after “also recorded” stand apart in the source; their conditions may differ. Like-named read-outs stand apart in the source and are kept apart here.

Columns and labels:
[1] = tested on: AMPT rat model of Parkinson's disease; assay: AMPT rat model of Parkinson's disease (catalepsy descent latency and centre rearing counts); assay type: in vivo
Method: AMPT is a competitive inhibitor of tyrosine hydroxylase. Rats dosed with >150 mg/kg AMPT develop parkinsonian-like behavior and locomotor deficits (e.g. catalepsy and reduced rearing activity) within hours owing to the depletion of striatal dopamine concentration as a consequence of the reduced flux through the dopamine synthetic pathway. […] Indian J. Exp. Biol. 41, 1264-1268).
The effect was compared with appropriate vehicle control groups (oral vehicle was 1% carboxymethylcellulose; CMC) and a group that received a 150 mg/kg i.p. dose of L-dopa.
Eight hours after AMPT (or vehicle) administration rats were assessed for catalepsy and centre rearing activity. During the catalepsy test, the front paws of the rat were placed over a horizontal bar suspended 9 cm off the floor. The time taken for the rat to get off the bar (descent latency) was measured with a maximum time of 3 minutes being allowed. Centre rearing counts were determined over a 1 hour monitoring period using an automated activity monitoring system (AM1053). This system used an array of infrared beams to determine the activity and mobility of each animal. Each cage had 48 infrared beams, 24 on each of two levels arranged in an 8×16, 1″ (25.4 mm) pitch grid. The lower grid measured horizontal x, y movement, whilst the upper grid measured rearing movement. The activity detector operated by counting the number of times the beams changed from unbroken to broken and then incrementing the relevant counters.
These groups were compared to a positive control group (6) dosed with 225 mg/kg AMPT i.p.+150 mg/kg L-dopa i.p. 6.5 hour post AMPT dose. L-dopa was administered with a peripheral dopa decarboxylase inhibitor (benserazide), at 100 mg/kg i.p.
In a second and third series of experiments, the efficacy of eight other HPPD inhibitor test compounds were assessed in the AMPT rat model of Parkinson's disease (Tables 1.5 & 1.6). Male Sprague-Dawley rats (300-350 g) were administered a single i.p. dose of 225 mg/kg AMPT and a single oral dose of 10 mg/kg of the HPPD inhibitor test compound was administered either 1 or 16 hours prior to (−16 or −1 hours) AMPT administration. Behavioral assessment (catalepsy and centre rearing counts) was conducted 8 hours post AMPT administration. The effect was compared with a vehicle control group and a group receiving AMPT alone.

[2] = molecular target: T1, 4-hydroxyphenyl pyruvate dioxygenase (HPPD) (Rattus norvegicus, UniProt P32755); assay: Determination of 4-hydroxyphenyl pyruvate dioxygenase (HPPD) enzyme activity in vitro (rate of oxygen consumption, rat liver cytosol); assay type: biochemical; settings: for inhibition at 0.1 µM: read-out: % Inhibition at 100 nM; for inhibition at 0.3 µM: read-out: % inhibition at 300 nM
T1 construct: rat liver cytosol (2.7 mg of protein/ml incubate); from tissue; host or cells: rat liver (cytosol, 110,000 g supernatant)
Method: The principle of the assay is that 4-hydroxyphenyl pyruvate dioxygenase (HPPD), an enzyme that participates in the catabolism of tyrosine, catalyses the oxidative decarboxylation and rearrangement of 4-hydroxyphenylpyruvate (HPPA) to homogentisate, with the incorporation of both atoms of molecular oxygen into the product.
Rat liver was homogenised in buffer of the following composition; 0.25 M Sucrose, 5.4 mM EDTA, 20 mM Tris base, pH 7.4, (25% homogenate) using 6 passes of a Potter type homogeniser. The homogenate was then centrifuged at 1,800 g for 10 minutes at 4° C., the pellet was discarded and the supernatant centrifuged at 17,000 g for a further 15 minutes at 4° C. The pellet was then discarded and the supernatant centrifuged at 110,000 g for 80 minutes at 4° C. The supernatant containing the HPPD enzyme from this 110,000 g spin was collected and stored frozen at −70° C. and used in the assays of the test compounds (see below).
Prior to the start of the enzymatic reaction by the addition of HPPA substrate, the enzyme and test compound (inhibitor) were incubated together for 3 minutes.
In cases where the effects of several concentrations of an inhibitor were investigated, an IC50 value (the half-maximal inhibitory concentration of test compound) was determined by plotting the data using a non-linear regression curve-fitting program using a GraphPad Prism™ software package.
Data are expressed as mean values from two experiments except where indicated. Where appropriate the values are expressed as the mean±standard deviation.

plasma tyrosine = assay: Plasma tyrosine concentration kinetic profile in the rat following a single oral dose; assay type: in vivo; settings: for Plasma Tyrosine Concentration: single oral dose 10 mg/kg; for Plasma tyrosine: single oral dose 2.0 mg/kg
Method: The plasma tyrosine concentration kinetic profile in the rat was determined for each of the HPPD inhibitor test compounds by administering a single oral dose to 10-12 week old male Sprague Dawley rats. Compounds 3.20, 3.13 and 3.26 were dosed at 2 mg/kg in 1% carboxymethylcellulose (1% CMC) vehicle, whilst compounds 3.22, 3.12, 3.15, 3.18, 3.23, 3.21, 3.11, 3.01, 3.24 and 3.25 were administered at 10 mg/kg in 1% CMC.
Blood samples to determine plasma tyrosine concentration were obtained at frequent intervals during the first 24 hours post-dose, and at 48 hours post-dose. These samples were either compared with blood samples obtained from control rats which only received an equivalent volume of the vehicle, 1% CMC, or by comparison with control samples obtained from the rats 1 hour prior to dosing with test the compound. Prior to the analysis of the samples for plasma tyrosine concentration, the blood samples were centrifuged at 1800 g for 10 minutes at 4° C. The plasma was collected and then filtered through a centrifugal micro partition device at 1500 g for 30 minutes at 4° C. The filtered plasma was then divided into two aliquots and stored frozen at −70° C. for subsequent gradient reverse phase high performance liquid chromatographic (HPLC) analysis of plasma tyrosine. Aliquots of plasma were analysed by HPLC using a 250×4.6 mm Hichrom S5ODS2 column at 30° C., eluted with a mobile phase of water/acetonitrile/trifluoroacetic acid (950:50:2 v/v/v) at a flow rate of 1 ml/min. Detection was by a diode array detector at 274 nm. Appropriate tyrosine standards were run alongside the samples for calibration purposes.
The plasma tyrosine concentration kinetic profile for the test compounds 3.20, 3.13 and 3.26 are shown at the time points 1, 2, 4, 6, 12, 24 and 48 hours post-dose in Table 1.1. The data shown are the mean±standard deviation (n=4), except for the 6 hour time point where the data were obtained from n=3 rats for the control and 3.26 groups.
The plasma tyrosine concentration kinetic profile for the test compounds 3.22, 3.12, 3.15, 3.18, 3.23, 3.21, 3.11, 3.01, 3.24 and 3.25 are shown at the time points −1 hour (pre-dose control), 1, 3, 6, 12, 24 and 48 hours post-dose, in Tables 1.2 and 1.3. The data shown are the mean±standard deviation (n=3), except for the −1 hour time point with compound 3.23, where n=2 (Table 1.2), and for the 3 and 6 hour time points with compound 3.21, where n=2 (Table 1.3).

[3] = 225 mg/kg AMPT i.p. + 2 mg/kg oral 4 hours post AMPT (+4 hours), 8 h post AMPT
[4] = 225 mg/kg AMPT i.p. + 2 mg/kg oral 16 hours prior to AMPT (-16 hours), 8 h post AMPT
[5] = single oral dose 10 mg/kg, -16 or -1 hours
[6] = single oral dose 10 mg/kg, -16 or -1 hours, 10 mg/kg
[7] = Table 1.5: 225 mg/kg AMPT i.p. + 10 mg/kg oral at -16 hours, 8 h post AMPT
[8] = 100 nM test compound, rat liver cytosol, 3 min pre-incubation
[9] = 300 nM test compound, rat liver cytosol, 3 min pre-incubation
[10] = 225 mg/kg AMPT i.p. + 150 mg/kg i.p. at +6.5 hours, with benserazide 100 mg/kg i.p., 8 h post AMPT

T1 sequence (P32755 whole entry): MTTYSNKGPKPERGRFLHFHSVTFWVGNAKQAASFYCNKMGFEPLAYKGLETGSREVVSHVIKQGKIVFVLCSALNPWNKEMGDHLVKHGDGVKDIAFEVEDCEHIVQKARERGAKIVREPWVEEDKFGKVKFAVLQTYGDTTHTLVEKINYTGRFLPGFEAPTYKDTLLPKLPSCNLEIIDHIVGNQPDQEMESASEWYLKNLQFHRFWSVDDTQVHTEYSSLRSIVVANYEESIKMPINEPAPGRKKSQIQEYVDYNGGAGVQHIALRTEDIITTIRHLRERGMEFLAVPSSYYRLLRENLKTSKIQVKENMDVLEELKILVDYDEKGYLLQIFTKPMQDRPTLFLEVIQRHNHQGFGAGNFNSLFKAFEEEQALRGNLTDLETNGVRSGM

| inhibition at 0.1 µM [2, 8] | SMILES | inhibition at 0.1 µM [2] | inhibition at 0.3 µM [2] | Plasma Tyrosine Concentration (plasma tyrosine; 1 hour post-dose) | Plasma Tyrosine Concentration (plasma tyrosine; 3 hours post-dose) | Plasma Tyrosine Concentration (plasma tyrosine; 6 hours post-dose) | Plasma Tyrosine Concentration (plasma tyrosine; 12 hours post-dose) | Plasma Tyrosine Concentration (plasma tyrosine; 24 hours post-dose) | Plasma Tyrosine Concentration (plasma tyrosine; 48 hours post-dose) | other results |
| --- | --- | --- | --- | --- | --- | --- | --- | --- | --- | --- |
|  | O=C1CCCC(O)=C1C(=O)c1ccc(C(F)(F)F)cc1[N+](=O)[O-] [Compound 2, 2-(2-Nitro-4-Trifluoromethylbenzoyl)-1,3-Cyclohexanedione] |  |  |  |  |  |  |  |  | Mean Catalepsy Descent Latency (s) [1, 3]: 27 ± 6.7^++ s; Mean Centre Rearing Counts [1, 3]: 298 ± 57^++ counts; Mean Catalepsy Descent Latency (s) [1, 4]: 27 ± 5.4^++ s; Mean Centre Rearing Counts [1, 4]: 364 ± 74^++ counts; Mean Catalepsy Descent Latency ([1]; AMPT vehicle (saline i.p., no AMPT) + 2 mg/kg oral at +4 hours, assessed 8 h): 12 ± 4.3 s; Mean Centre Rearing Counts ([1]; AMPT vehicle (saline i.p., no AMPT) + 2 mg/kg oral at +4 hours, assessed 8 h, 1 hour monitoring): 485 ± 108 counts; reversal of AMPT induced deficits in centre rearing counts (in words) ([1]; single oral dose 2 mg/kg, 2 mg/kg): reversed; also recorded: effective in reversing; reversal of AMPT induced catalepsy (in words) ([1]; single oral dose 2 mg/kg, both dosing regimens, 2 mg/kg): substantially reversed; also recorded: effective in reversing |
|  | CS(=O)(=O)c1cc(C(F)(F)F)ccc1C(=O)c1cnoc1C1CC1 [Compound 3.01] | 8% | 36% | 160 ± 7.4 nmol/mL | 276 ± 12.9 nmol/mL | 445 ± 32.9 nmol/mL | 666 ± 16.1 nmol/mL | 264 ± 23.5 nmol/mL | 110 ± 23.9 nmol/mL | Mean Centre Rearing Counts ([1]; Table 1.6: 225 mg/kg AMPT i.p. + 10 mg/kg oral at -1 hour, 8 h post AMPT): 88 ± 26 counts; reversal of AMPT induced deficits in mean centre rearing counts (in words) [1, 5]: either partially or completely reversing; reversal of AMPT induced catalepsy (in words) [1, 6]: substantially reversed; also recorded: effective in reversing |
|  | Cc1cc(C(=O)C2=C([O-])CCCC2=O)c(C)c2c1S(=O)(=O)CCC21OCCO1.[K+] [Compound 3.11] | 9% | 45% | 193 ± 22.9 nmol/mL | 338 ± 48.9 nmol/mL | 551 ± 80.7 nmol/mL | 1041 ± 106.0 nmol/mL | 2125 ± 65.8 nmol/mL | 993 ± 260.6 nmol/mL | Mean Catalepsy Descent Latency (s) [1, 7]: 9 ± 2.7^+++ s; Mean Centre Rearing Counts [1, 7]: 303 ± 53 counts; reversal of AMPT induced deficits in mean centre rearing counts (in words) [1, 5]: either partially or completely reversing; reversal of AMPT induced catalepsy (in words) [1, 6]: substantially reversed; also recorded: effective in reversing |
|  | COCCOCc1nc(C(F)(F)F)ccc1C(=O)C1=C(O)C2CCC(C2)C1=O (stereo not drawn) [Compound 3.13] | 14% | 41% |  |  |  |  |  |  | IC50 ([2]; rat liver cytosol HPPD): 0.35 µM; Plasma tyrosine (plasma tyrosine; 1 hour post-dose): 158 ± 6.4 nmol/mL; Plasma tyrosine (plasma tyrosine; 2 hours post-dose): 209 ± 14.8 nmol/mL; Plasma tyrosine (plasma tyrosine; 4 hours post-dose): 324 ± 50.2 nmol/mL; Plasma tyrosine (plasma tyrosine; 6 hours post-dose): 461 ± 52.2 nmol/mL; Plasma tyrosine (plasma tyrosine; 12 hours post-dose): 801 ± 24.8 nmol/mL; Plasma tyrosine (plasma tyrosine; 24 hours post-dose): 1281 ± 90.0 nmol/mL; Plasma tyrosine (plasma tyrosine; 48 hours post-dose): 115 ± 3.0 nmol/mL |
|  | CC1=NN(C)C(=O)C1C(=O)c1ccc(C(F)(F)F)cc1S(C)(=O)=O (stereo not drawn) [Compound 3.21] | 10% | 43% | 177 ± 17.8 nmol/mL | 300 nmol/mL | 472 nmol/mL | 555 ± 39.0 nmol/mL | 181 ± 23.6 nmol/mL | 100 ± 6.4 nmol/mL |  |
| 44% | CCOc1c(S(C)(=O)=O)ccc(C(=O)C2C(=O)CC(C)CC2=O)c1Cl (stereo not drawn) [Compound 3.22] |  |  | 179 ± 18.5 nmol/mL | 319 ± 43.5 nmol/mL | 507 ± 86.4 nmol/mL | 1011 ± 134.8 nmol/mL | 2067 ± 36.6 nmol/mL | 2377 ± 518.5 nmol/mL |  |
| 5% | CS(=O)(=O)c1cc(Cl)ccc1C(=O)c1cnoc1C1CC1 [Compound 3.25] |  |  | 162 ± 17.7 nmol/mL | 267 ± 19.4 nmol/mL | 370 ± 60.8 nmol/mL | 415 ± 152.8 nmol/mL | 136 ± 31.2 nmol/mL | 100 ± 13.5 nmol/mL | inhibition at 0.3 µM [2, 9]: 22% |
| 20 ± 6.1% | Cc1nc(C(F)F)ccc1C(=O)C1C(=O)C2CCC(C2)C1=O (stereo not drawn) [Compound 3.26] |  |  |  |  |  |  |  |  | inhibition at 0.3 µM [2, 9]: 43%; Plasma tyrosine (plasma tyrosine; 1 hour post-dose): 173 ± 9.6 nmol/mL; Plasma tyrosine (plasma tyrosine; 2 hours post-dose): 241 ± 24.0 nmol/mL; Plasma tyrosine (plasma tyrosine; 4 hours post-dose): 337 ± 53.5 nmol/mL; Plasma tyrosine (plasma tyrosine; 6 hours post-dose): 504 ± 72.7 nmol/mL; Plasma tyrosine (plasma tyrosine; 12 hours post-dose): 897 ± 140.8 nmol/mL; Plasma tyrosine (plasma tyrosine; 24 hours post-dose): 1987 ± 50.0 nmol/mL; Plasma tyrosine (plasma tyrosine; 48 hours post-dose): 2449 ± 156.8 nmol/mL |
|  | N[C@@H](Cc1ccc(O)c(O)c1)C(=O)O [L-dopa, L-3,4-dihydroxyphenylalanine, reference compound] |  |  |  |  |  |  |  |  | Mean Catalepsy Descent Latency (s) [1, 10]: 25 ± 6.9^++ s; Mean Centre Rearing Counts [1, 10]: 258 ± 71^+ counts |
